Results from ChEMBL document CHEMBL1128558, “Effect of bridge region variation on antifolate and antitumor activity of classical 5-substituted 2,4-diaminofuro[2,3-d]pyrimidines” (J Med Chem, 1995).

T1: Dihydrofolate reductase (Homo sapiens, UniProt P00374)
T1 sequence (P00374 whole entry): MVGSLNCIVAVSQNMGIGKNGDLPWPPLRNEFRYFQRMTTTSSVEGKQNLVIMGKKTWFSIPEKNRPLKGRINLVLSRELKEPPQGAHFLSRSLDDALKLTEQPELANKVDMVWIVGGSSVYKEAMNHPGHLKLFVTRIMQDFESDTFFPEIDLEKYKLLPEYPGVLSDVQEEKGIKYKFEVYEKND

T2: Thymidylate synthase (Lactobacillus casei, UniProt P00469)
T2 sequence (P00469 whole entry): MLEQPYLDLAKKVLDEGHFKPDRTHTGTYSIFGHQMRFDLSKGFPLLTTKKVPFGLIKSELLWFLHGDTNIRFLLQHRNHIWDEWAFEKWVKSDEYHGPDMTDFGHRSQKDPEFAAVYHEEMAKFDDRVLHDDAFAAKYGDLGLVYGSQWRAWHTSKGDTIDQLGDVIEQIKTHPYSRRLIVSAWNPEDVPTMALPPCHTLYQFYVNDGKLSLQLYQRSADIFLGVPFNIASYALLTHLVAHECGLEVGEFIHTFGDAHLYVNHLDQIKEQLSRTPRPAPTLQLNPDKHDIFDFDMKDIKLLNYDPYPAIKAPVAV

B1: Folylpolyglutamate synthase, mitochondrial (Homo sapiens), Q05932 (protein)
chain: MSRARSHLRAALFLAAASARGITTQVAARRGLSAWPVPQEPSMEYQDAVRMLNTLQTNAGYLEQVKRQRGDPQTQLEAMELYLARSGLQVEDLDRLNIIHVTGTKGKGSTCAFTECILRSYGLKTGFFSSPHLVQVRERIRINGQPISPELFTKYFWRLYHRLEETKDGSCVSMPPYFRFLTLMAFHVFLQEKVDLAVVEVGIGGAYDCTNIIRKPVVCGVSSLGIDHTSLLGDTVEKIAWQKGGIFKQGVPAFTVLQPEGPLAVLRDRAQQISCPLYLCPMLEALEEGGPPLTLGLEGEHQRSNAALALQLAHCWLQRQDRHGAGEPKASRPGLLWQLPLAPVFQPTSHMRLGLRNTEWPGRTQVLRRGPLTWYLDGAHTASSAQACVRWFRQALQGRERPSGGPEVRVLLFNATGDRDPAALLKLLQPCQFDYAVFCPNLTEVSSTGNADQQNFTVTLDQVLLRCLEHQQHWNHLDEEQASPDLWSAPSPEPGGSASLLLAPHPPHTCSASSLVFSCISHALQWISQGRDPIFQPPSPPKGLLTHPVAHSGASILREAAAIHVLVTGSLHLVGGVLKLLEPALSQ

Key:
CCRF-CEM [1] = test: he compound was tested for Growth inhibition of the Human T-lymphoblastic Leukemia cell line CCRF-CEM; type: functional, cell-based
Dihydrofolate reductase [2] = target: Dihydrofolate reductase (Lactobacillus casei, UniProt P00381)
Description: inhibitory concentration against Lactobacillus casei DHFR(Dihydro folate reductase).

Dihydrofolate reductase [3] = target: T1, Dihydrofolate reductase; test: Inhibitory concentration against recombinant human DHFR(Dihydro folate reductase).
Thymidylate synthase [4] = target: T2, Thymidylate synthase; test: Inhibitory concentration against Lactobacillus casei TS (Thymidylate synthase).; design: species or system Lacticaseibacillus casei
Thymidylate synthase [5] = target: Thymidylate synthase (Homo sapiens, UniProt P04818); test: Inhibitory concentration against recombinant human TS (Thymidylate synthase).
FaDu [6] = test: The compound was tested for Growth inhibition of the human squamous cell carcinoma FaDu cells; type: functional, cell-based
[7] = Ratio of Vmax to Km
FaDu [8] = test: Protection by 10 uM LV(leucovorin) against the growth inhibition of FaDu cells induced by the compound; type: functional, Homo sapiens; design: scale not given: the % may be the effect or the level left
FaDu [9] = test: Protection by combination of 50 uM Hx (Hypoxanthine) + 40 uM TdR(thymidine) against the growth inhibition of FaDu cells induced by the compound; type: functional, Homo sapiens; design: scale not given: the % may be the effect or the level left
A253 cell line = test: The compound was tested for Growth inhibition of the human squamous cell carcinoma A253 cells; type: functional, cell-based
CCRF-CEM [10] = test: Compound was tested for Growth inhibition of the Human T-lymphoblastic Leukemia cell line CCRF-CEM; type: functional, cell-based
FaDu [11] = test: Protection by 40 uM TdR(thymidine) against the growth inhibition of FaDu cells induced by the compound; type: functional, Homo sapiens; design: scale not given: the % may be the effect or the level left
CCRF-CEM [12] = test: The compound was tested for Growth inhibition of Methotrexate-resistant human T-lymphoblastic leukemia cell line CCRF-CEM(sub line R30dm); type: functional, cell-based
FaDu [13] = test: Protection by 50 uM Hx (Hypoxanthine) against the growth inhibition of FaDu cells induced by the compound; type: functional, Homo sapiens; design: scale not given: the % may be the effect or the level left
FaDu [14] = test: The compound was tested for growth inhibition against FaDu cells; type: functional, Homo sapiens; design: scale not given: the % may be the effect or the level left
[15] = substrate: Nc1nc(N)c2nc(CNc3ccc(C(=O)N[C@@H](CCC(=O)O)C(=O)O)cc3)cnc2n1; test: (§1) Substrate activity against CCRF-CEM human leukemia cell Folyl-polyglutamate synthase
[16] = substrate: Nc1nc(N)c2c(CCc3ccc(C(=O)N[C@@H](CCC(=O)O)C(=O)O)cc3)coc2n1; test: as §1
[17] = substrate: Nc1nc(N)c2nc(CNc3ccc(C(=O)N[C@@H](CCC(=O)O)C(=O)O)cc3)cnc2n1; test: (§2) Vmax value for substrate activity against CCRF-CEM human leukemia cell Folyl-polyglutamate synthase; type: cell-based
[18] = substrate: Nc1nc(N)c2c(CNCc3ccc(C(=O)N[C@@H](CCC(=O)O)C(=O)O)cc3)coc2n1; test: as §2; type: cell-based
[19] = substrate: Nc1nc(N)c2c(CCc3ccc(C(=O)N[C@@H](CCC(=O)O)C(=O)O)cc3)coc2n1; test: as §2; type: cell-based

Sequence of Dihydrofolate reductase (Lactobacillus casei, UniProt P00381) (P00381 whole entry): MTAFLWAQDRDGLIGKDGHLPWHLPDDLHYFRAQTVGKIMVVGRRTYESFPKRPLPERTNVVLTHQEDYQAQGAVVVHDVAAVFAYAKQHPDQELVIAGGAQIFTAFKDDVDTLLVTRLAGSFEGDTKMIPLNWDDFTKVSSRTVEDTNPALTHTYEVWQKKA
Sequence of Thymidylate synthase (Homo sapiens, UniProt P04818) (P04818 whole entry): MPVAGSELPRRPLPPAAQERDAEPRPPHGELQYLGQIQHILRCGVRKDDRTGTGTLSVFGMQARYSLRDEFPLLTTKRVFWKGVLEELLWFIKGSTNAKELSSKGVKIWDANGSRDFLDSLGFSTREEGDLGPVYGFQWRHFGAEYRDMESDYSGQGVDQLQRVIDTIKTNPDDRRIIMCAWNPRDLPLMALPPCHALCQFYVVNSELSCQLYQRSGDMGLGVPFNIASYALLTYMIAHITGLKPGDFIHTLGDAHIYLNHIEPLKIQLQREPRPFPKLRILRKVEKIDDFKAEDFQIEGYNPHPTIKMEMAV

Molecule | IC50 (Dihydrofolate reductase [2]) [nM] | IC50 (Dihydrofolate reductase [3]) [nM] | IC50 (Thymidylate synthase [4]) [µM] | EC50 (FaDu [6]) [nM] | Ratio [7] | Control (FaDu [8]) [%] | EC50 (A253 cell line) [nM] | Control (FaDu [11]) [%] | Control (FaDu [13]) [%] | Control (FaDu [14]) [%] | further results
Nc1nc(N)c2c(CNCc3ccc(C(=O)N[C@@H](CCC(=O)O)C(=O)O)cc3)coc2n1 | > 200000 | > 200000 | > 200 | – | – | – | – | – | – | – | EC50 (CCRF-CEM [1]): 48 µM
Nc1nc(N)c2c(CNc3ccc(C(=O)N[C@@H](CCC(=O)O)C(=O)O)cc3)coc2n1 | 560 | 450 | > 200 | – | – | – | – | – | – | – | IC50 (Thymidylate synthase [5]): > 200 µM
Nc1nc(N)c2c(CCc3ccc(C(=O)N[C@@H](CCC(=O)O)C(=O)O)cc3)coc2n1 | – | – | 200 | 180 | 0.07 | 105 | 540 | 14 | 4 | 7 | Control (FaDu [9]): 107%; EC50 (CCRF-CEM [10]): 290 nM; EC50 (CCRF-CEM [12]): 4.25 µM
CN(Cc1cnc2nc(N)nc(N)c2n1)c1ccc(C(=O)N[C@@H](CCC(=O)O)C(=O)O)cc1 [METHOTREXATE] | – | – | – | 17 | – | 96 | 13 | 8 | 6 | 2 | –
Nc1nc(N)c2nc(CNc3ccc(C(=O)N[C@@H](CCC(=O)O)C(=O)O)cc3)cnc2n1 | – | – | – | – | 0.21 | – | – | – | – | – | –
B1 | – | – | – | – | – | – | – | – | – | – | Km [15]: 4.8 µM; Km [16]: 8.5 µM; Vmax [17]: 1; Vmax [18]: 0.6; Vmax [19]: 0.65
